Source: patent publication US20240100170A1, “CYCLIC-AMP RESPONSE ELEMENT BINDING PROTEIN (CBP) AND/OR ADENOVIRAL E1A BINDING PROTEIN OF 300 KDA (P300) DEGRADATION COMPOUNDS AND METHODS OF USE” (CULLGEN (SHANGHAI), INC., priority 2020, published 2024)
“Also recorded” adds a separate entry of the source.

Assays:
P300 [1] = molecular target: T1, P300 (Homo sapiens, UniProt Q09472); assay: P300 immunoblotting in 22RV1 subcutaneous xenograft tumors; type: in vivo, athymic nude mice; design: from tissue; host or cells: 22RV1 subcutaneous xenograft tumours in athymic nude mice; conditions: single dose 40 mg/kg, intraperitoneally or orally, six hours after administration; FIG. 9
T1 sequence (Q09472 whole entry): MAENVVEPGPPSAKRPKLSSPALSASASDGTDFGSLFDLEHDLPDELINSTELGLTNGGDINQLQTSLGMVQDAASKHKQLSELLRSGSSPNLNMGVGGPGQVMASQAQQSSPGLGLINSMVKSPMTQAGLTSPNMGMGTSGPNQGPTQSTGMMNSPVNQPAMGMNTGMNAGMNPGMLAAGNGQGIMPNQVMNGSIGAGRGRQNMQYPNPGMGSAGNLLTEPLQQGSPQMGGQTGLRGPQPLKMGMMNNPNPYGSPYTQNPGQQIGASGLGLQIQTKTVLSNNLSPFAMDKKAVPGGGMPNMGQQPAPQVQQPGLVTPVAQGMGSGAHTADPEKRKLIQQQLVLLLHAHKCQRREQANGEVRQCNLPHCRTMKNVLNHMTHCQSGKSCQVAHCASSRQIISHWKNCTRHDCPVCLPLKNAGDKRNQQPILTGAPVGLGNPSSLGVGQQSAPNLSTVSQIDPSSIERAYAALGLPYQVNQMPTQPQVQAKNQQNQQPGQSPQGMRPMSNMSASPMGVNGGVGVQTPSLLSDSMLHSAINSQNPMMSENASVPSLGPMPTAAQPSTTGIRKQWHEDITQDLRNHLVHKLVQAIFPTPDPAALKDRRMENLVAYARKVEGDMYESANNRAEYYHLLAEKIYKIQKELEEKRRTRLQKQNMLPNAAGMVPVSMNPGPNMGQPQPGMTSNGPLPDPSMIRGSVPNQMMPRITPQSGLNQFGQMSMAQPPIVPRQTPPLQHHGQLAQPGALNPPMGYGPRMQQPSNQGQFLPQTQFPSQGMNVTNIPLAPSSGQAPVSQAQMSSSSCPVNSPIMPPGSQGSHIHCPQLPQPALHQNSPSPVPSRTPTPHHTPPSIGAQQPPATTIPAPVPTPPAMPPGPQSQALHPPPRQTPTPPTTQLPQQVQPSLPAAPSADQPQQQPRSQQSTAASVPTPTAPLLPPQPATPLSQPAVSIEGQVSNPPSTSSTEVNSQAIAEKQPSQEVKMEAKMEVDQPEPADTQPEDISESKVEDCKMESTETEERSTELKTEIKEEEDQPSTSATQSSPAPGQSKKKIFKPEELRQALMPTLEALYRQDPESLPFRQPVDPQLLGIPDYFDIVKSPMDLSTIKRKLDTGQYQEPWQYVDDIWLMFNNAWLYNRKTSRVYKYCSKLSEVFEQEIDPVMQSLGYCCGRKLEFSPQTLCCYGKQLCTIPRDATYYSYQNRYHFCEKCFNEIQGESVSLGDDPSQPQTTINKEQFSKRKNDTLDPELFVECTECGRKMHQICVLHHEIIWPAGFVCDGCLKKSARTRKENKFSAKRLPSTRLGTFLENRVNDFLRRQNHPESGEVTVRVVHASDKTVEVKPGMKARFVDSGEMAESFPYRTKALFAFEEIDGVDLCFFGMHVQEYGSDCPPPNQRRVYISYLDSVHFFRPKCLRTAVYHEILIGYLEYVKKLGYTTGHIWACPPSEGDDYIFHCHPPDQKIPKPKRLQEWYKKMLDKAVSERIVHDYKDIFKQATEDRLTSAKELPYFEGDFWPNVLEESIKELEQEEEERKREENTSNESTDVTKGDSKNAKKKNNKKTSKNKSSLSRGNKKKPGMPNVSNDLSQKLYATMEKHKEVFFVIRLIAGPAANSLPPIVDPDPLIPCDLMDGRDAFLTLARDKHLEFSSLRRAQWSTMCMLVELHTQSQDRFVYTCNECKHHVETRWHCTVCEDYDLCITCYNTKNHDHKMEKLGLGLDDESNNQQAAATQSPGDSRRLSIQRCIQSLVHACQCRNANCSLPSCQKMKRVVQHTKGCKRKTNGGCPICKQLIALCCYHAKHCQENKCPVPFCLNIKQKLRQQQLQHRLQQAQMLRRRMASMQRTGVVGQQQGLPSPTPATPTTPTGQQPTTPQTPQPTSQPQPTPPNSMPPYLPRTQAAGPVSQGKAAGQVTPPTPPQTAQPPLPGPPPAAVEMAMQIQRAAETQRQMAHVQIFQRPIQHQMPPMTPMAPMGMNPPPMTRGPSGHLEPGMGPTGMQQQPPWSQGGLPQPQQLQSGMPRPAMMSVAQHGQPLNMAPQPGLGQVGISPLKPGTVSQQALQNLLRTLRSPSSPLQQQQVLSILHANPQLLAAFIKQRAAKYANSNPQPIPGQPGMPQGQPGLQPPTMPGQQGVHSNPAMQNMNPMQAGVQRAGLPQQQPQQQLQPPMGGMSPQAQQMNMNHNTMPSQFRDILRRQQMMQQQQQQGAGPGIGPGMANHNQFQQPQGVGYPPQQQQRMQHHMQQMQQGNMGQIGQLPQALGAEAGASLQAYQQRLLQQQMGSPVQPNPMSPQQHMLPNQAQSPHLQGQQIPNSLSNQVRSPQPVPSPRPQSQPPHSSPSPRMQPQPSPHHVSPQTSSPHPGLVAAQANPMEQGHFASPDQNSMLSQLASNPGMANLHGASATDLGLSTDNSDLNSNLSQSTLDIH
Procedure: (§1) In addition to cultured cells, athymic nude mice bearing 22RV1 subcutaneous xenograft tumors at the right flank were intraperitoneally or orally treated with 40 mg/kg bivalent compounds. Six hours after drug administration, animals were sacrificed for immunoblotting of P300 and CBP in homogenized xenograft tumor masses. […] Moreover, ICR mice were orally treated with 40 mg/kg bivalent compounds. Six hours after drug administration, animals were sacrificed for immunoblotting of CBP in homogenized lung tissues.
(§2) Athymic nude mice bearing 22RV1 subcutaneous xenograft tumors at the right flank were intraperitoneally or orally treated with selected bivalent compounds at 40 mg/kg. Six hours after drug administration, animals were sacrificed, and xenograft tumors were collected for immunoblotting of P300 and CBP.
(§3) Cultured cells or tissue chunks were washed with cold PBS once and lysed in cold RIPA buffer supplemented with protease inhibitors and phosphatase inhibitors (Beyotime Biotechnology). The solutions were then incubated at 4° C. for 30 minutes with gentle agitation to fully lyse cells. Cell lysates were centrifuged at 13,000 rpm for 10 minutes at 4° C. and pellets were discarded. Total protein concentrations in the lysates were determined by BCA assays (Beyotime Biotechnology). Cell lysates were mixed with Laemmli loading buffer to 1 X and heated at 99° C. for 5 min. Proteins were resolved on SDS-PAGE and visualized by chemiluminescence. Images were taken by a ChemiDoc MP Imaging system (Bio-Rad). Protein bands were quantitated using the accompanied software provided by Bio-Rad.
(§4) All animal experiments were performed under protocols approved by the Institutional Animal Care and Use Committee (IACUC) of Cullgen. Athymic nude mice (male, 5-weeks old) received 5 million 22RV1 cells subcutaneously inoculated at the right flank site. Twenty days following inoculation, tumors were approxmiately 500 mm^3 in size. Tumor-bearing mice were treated intraperitoneally or via oral gavage with vehicle or bivalent compounds at indicated doses. […]

CBP [2] = molecular target: T2, CBP (Homo sapiens, UniProt Q92793); assay: CBP immunoblotting in 22RV1 subcutaneous xenograft tumors; type: in vivo, athymic nude mice; design: from tissue; host or cells: 22RV1 subcutaneous xenograft tumours in athymic nude mice; conditions: single dose 40 mg/kg, intraperitoneally or orally, six hours after administration; FIG. 9
T2 sequence (Q92793 whole entry): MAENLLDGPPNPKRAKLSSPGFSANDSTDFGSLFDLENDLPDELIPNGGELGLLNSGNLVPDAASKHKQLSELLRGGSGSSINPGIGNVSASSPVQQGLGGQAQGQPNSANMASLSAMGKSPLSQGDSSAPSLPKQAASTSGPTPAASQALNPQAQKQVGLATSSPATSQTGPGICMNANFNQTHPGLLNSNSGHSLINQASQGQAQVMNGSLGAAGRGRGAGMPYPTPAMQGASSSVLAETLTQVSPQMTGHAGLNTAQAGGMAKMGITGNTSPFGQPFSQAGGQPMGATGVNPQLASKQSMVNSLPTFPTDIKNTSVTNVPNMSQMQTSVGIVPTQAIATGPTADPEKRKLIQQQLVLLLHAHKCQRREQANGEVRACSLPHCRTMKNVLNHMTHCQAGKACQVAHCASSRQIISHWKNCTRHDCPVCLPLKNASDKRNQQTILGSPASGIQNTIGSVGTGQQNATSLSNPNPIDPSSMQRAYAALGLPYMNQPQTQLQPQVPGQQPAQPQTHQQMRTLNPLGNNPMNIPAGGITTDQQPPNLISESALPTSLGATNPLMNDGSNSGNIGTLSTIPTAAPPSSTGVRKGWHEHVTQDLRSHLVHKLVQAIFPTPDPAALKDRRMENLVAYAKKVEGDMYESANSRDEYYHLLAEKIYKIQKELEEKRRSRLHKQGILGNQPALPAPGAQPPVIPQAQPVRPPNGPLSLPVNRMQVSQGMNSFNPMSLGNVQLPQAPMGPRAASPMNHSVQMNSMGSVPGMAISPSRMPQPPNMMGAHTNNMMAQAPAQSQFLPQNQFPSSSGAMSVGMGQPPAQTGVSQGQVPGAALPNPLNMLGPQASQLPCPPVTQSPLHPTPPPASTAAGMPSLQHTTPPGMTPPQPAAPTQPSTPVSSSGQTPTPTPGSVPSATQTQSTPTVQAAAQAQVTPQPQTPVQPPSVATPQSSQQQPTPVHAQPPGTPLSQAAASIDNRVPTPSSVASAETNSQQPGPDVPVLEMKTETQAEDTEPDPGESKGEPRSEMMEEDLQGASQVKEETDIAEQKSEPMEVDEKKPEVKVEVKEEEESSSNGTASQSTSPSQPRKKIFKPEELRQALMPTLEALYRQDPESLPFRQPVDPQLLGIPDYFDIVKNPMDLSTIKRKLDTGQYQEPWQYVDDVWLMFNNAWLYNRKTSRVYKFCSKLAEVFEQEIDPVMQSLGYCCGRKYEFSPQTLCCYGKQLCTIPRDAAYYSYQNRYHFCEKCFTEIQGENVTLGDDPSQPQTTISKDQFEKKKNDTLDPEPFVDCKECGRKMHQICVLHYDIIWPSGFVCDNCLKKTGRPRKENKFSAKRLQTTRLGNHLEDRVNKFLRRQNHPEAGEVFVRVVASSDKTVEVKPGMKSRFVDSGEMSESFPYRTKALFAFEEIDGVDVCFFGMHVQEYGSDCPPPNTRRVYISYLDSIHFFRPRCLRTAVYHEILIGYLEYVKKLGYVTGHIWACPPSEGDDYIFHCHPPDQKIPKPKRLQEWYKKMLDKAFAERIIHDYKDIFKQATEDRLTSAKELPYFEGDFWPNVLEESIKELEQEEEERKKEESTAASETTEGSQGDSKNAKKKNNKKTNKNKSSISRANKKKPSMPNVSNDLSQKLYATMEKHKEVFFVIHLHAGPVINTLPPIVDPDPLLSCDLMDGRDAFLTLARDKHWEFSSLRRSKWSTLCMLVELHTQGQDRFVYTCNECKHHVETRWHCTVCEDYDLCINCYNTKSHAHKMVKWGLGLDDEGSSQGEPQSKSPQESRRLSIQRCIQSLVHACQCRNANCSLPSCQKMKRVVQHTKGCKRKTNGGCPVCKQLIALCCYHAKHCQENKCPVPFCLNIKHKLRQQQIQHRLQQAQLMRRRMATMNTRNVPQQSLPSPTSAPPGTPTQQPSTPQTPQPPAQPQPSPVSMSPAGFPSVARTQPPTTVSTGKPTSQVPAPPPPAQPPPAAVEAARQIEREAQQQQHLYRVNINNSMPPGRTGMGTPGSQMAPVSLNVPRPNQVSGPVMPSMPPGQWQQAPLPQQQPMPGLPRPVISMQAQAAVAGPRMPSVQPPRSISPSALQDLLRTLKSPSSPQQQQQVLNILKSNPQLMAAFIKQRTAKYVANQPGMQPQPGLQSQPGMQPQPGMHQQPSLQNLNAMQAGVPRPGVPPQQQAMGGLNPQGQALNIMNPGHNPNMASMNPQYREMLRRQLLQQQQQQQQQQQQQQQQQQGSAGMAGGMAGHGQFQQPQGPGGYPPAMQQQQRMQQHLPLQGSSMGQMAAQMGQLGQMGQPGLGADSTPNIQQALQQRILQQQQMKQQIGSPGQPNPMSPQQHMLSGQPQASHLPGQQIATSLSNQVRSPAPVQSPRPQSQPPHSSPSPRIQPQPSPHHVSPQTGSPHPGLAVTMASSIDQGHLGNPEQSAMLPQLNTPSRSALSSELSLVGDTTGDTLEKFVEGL
Procedure: as §1, §2, §3, §4

CBP [3] = molecular target: T2, CBP; assay: CBP protein level by immunoblotting in LNCaP cells; type: cell-based; design: LNCaP or 22RV1 cells that express CBP/P300 proteins were treated with GNE-781 or the bivalent compounds; endogenous in cells; host or cells: LNCaP (clone FGC); conditions: single dose, FIG. 8
Procedure: (§5) Specific exemplary bivalent compounds were characterized in LNCaP or 22RV1 cells. LNCaP or 22RV1 cells that express CBP/P300 proteins were treated with GNE-781 or the bivalent compounds disclosed herein (P-001 to P-265) for indicated hours. Cells were collected, lysed and subject to immunoblotting using an antibody specific to P300 or CBP proteins. Tubulin or vinculin was included as the loading control. DMSO was used as the negative control.
(§6) LNCaP (clone FGC), 22RV1 and other cells were cultured at 37° C. with 5% CO 2 in RPMI 1640 Medium supplemented with 10% fetal bovine serum. Cells were authenticated using the short tandem repeat (STR) assays. Mycoplasma test results were negative.
as §3

P300 [4] = molecular target: T1, P300; assay: P300 protein level by immunoblotting in LNCaP cells; type: cell-based; design: LNCaP or 22RV1 cells that express CBP/P300 proteins were treated with GNE-781 or the bivalent compounds; endogenous in cells; host or cells: LNCaP or 22RV1 (not given); conditions: for degradation of P300 in combination with pomalidomide, MG-132, Bortezomib or MLN4924: single dose, FIG. 8; for P300 protein levels: various concentrations, compound vs analogue that lost cereblon binding, FIG. 7A
Procedure: as §5, §6, §3

P300 [5] = molecular target: T1, P300; assay: P300 protein level by immunoblotting in 22RV1 cells; type: cell-based; design: LNCaP or 22RV1 cells that express CBP/P300 proteins were treated with GNE-781 or the bivalent compounds; endogenous in cells; host or cells: LNCaP or 22RV1 (not given); conditions: various concentrations, compound vs analogue that lost cereblon binding, FIG. 7B
Procedure: as §5, §6
as §3, with “Proteins were resolved on SDS-PAGE and visualized by chemiluminescence. Images were taken by a ChemiDoc MP Imaging system (Bio-Rad).” left out

| Structure (SMILES) | P300 protein levels in xenograft tumors (P300 [1]) | CBP protein levels in xenograft tumors (CBP [2]) | degradation of CBP in combination with pomalidomide, MG-132, Bortezomib or MLN4924 (CBP [3]) | degradation of P300 in combination with pomalidomide, MG-132, Bortezomib or MLN4924 (P300 [4]) | P300 protein levels (P300 [4]) | P300 protein levels (P300 [5]) |
| --- | --- | --- | --- | --- | --- | --- |
| CNC(=O)N1CCc2c(c(N3CCCc4cc(-c5cnn(C)c5)c(C(F)F)cc43)nn2C2CCN(C(=O)CCCCCNc3cccc4c3C(=O)N(C3CCC(=O)NC3=O)C4=O)CC2)C1 (stereo not drawn) [P-034, 3-(7-(difluoromethyl)-6-(1-methyl-1H-pyrazol-4-yl)-3,4-dihydroquinolin-1(2H)-yl)-1-(1-(6-((2-(2,6-dioxopiperidin-3-yl)-1,3-dioxoisoindolin-4-yl)amino)hexanoyl)piperidin-4-yl)-N-methyl-1,4,6,7-tetrahydro-5H-pyrazolo[4,3-c]pyridine-5-carboxamide] | significantly reducing | significantly reducing | compromised; also recorded: could be neutralized | compromised; also recorded: could be neutralized | a chemical modification that disrupted cereblon binding abolished P300 degradation | a chemical modification that disrupted cereblon binding abolished P300 degradation |
| CC(=O)N1CCc2c(c(N3CCCc4cc(-c5cnn(C)c5)c(C(F)F)cc43)nn2C2CCN(C(=O)CCCCCNc3cccc4c3C(=O)N(C3CCC(=O)NC3=O)C4=O)CC2)C1 (stereo not drawn) [P-100, 4-((6-(4-(5-acetyl-3-(7-(difluoromethyl)-6-(1-methyl-1H-pyrazol-4-yl)-3,4-dihydroquinolin-1(2H)-yl)-4,5,6,7-tetrahydro-1H-pyrazolo[4,3-c]pyridin-1-yl)piperidin-1-yl)-6-oxohexyl)amino)-2-(2,6-dioxopiperidin-3-yl)isoindoline-1,3-dione] | significantly reducing | significantly reducing | compromised; also recorded: could be neutralized | compromised; also recorded: could be neutralized | reduced P300 protein levels in a concentration-dependent manner | reduced P300 protein levels in a concentration-dependent manner |
